Source: article PMC8280112, “Substrate reduction therapy for Krabbe disease and metachromatic leukodystrophy using a novel ceramide galactosyltransferase inhibitor” (Scientific Reports, 2021)

Columns and labels:
[1] = molecular target: T1, Glucosylceramide synthase (GCS) (Canis lupus familiaris, UniProt A0A8I3MXG6); experiment: Glucosylceramide synthase assay; format: biochemical; settings: MDCK cell lysate
T1 construct: endogenous in cells; host or cells: MDCK cell lysate
T1 sequence (A0A8I3MXG6 1-394): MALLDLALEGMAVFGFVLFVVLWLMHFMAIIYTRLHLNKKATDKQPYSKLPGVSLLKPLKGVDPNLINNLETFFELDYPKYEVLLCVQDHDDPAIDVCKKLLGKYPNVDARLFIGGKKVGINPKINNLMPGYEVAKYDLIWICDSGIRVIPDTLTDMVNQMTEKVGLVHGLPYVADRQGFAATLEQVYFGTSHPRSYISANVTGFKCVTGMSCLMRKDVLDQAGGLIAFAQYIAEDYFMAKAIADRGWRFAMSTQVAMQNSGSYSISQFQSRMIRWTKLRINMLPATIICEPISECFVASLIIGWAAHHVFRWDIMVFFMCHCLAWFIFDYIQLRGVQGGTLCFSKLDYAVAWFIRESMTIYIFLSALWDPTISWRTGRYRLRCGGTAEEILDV
Protocol: Modified from Larsen et al.[46]. Briefly, 60 μg of MDCK cell lysate was incubated with […] in 100 mM Tris buffer (pH 7.5), 10 mM MgCl2, 1 mM dithiothreitol, 1 mM EGTA, 2 mM NAD, 100 μM UDP-glucose, 10 μM C6-NBD-Ceramide (Matreya), 35 μM DOPC, and 5 μM sulfatide (Sigma) at 37 °C for 1 h. The reaction was stopped with equal volume of acetonitrile and 50 μL was added to 100 μL of acetonitrile containing 100 ng/mL tolbutamide IS and centrifuged. Next, 70 μL of supernatant was mixed with 140 μL H2O before LC-MS analysis. NBD-Glucosylceramide quantification was performed on a Shimadzu ultra-fast liquid chromatography system (Shimadzu) coupled with an API 4000 triple quadrupole mass spectrometer in ESI positive mode (Applied Biosystems) and a Xbridge BEH130 CI 8, 100 mm × 4.6 mm i.d, 3.5 μm column (Waters). The mobile phase consisted of water and acetonitrile supplemented with 0.1% formic acid (v/v).

[2] = tested on: Sphingomyelin synthase (SMS); experiment: Sphingomyelin synthase assay; format: biochemical; settings: MDCK cell lysate
Protocol: 100 µL assay buffer (50 mM Tris buffer pH 7.5 containing 25 mM KCl, 0.5 mM EDTA, 10 µM NBD-C6 ceramide, 100 µM DOPC, and 0.01% Tween 80), 60 µg MDCK cell lysate, and serial diluted compounds were incubated at 37 ℃ for 1 h. The reaction was terminated and prepared for LC–MS using the same protocol as the GCS assay, however, a NBD-C6-sphingomyelin (Avanti) reference standard was used to quantify the sphingomyelin synthesis.

[3] = molecular target: T2, UGT1A (Homo sapiens, UniProt P22309); experiment: UDP glucuronosyltransferase assay (Eurofins Panlabs); format: biochemical
T2 construct: purchased Eurofins Panlabs Taiwan, Ltd. ITEM 196000
T2 sequence (P22309 26-533): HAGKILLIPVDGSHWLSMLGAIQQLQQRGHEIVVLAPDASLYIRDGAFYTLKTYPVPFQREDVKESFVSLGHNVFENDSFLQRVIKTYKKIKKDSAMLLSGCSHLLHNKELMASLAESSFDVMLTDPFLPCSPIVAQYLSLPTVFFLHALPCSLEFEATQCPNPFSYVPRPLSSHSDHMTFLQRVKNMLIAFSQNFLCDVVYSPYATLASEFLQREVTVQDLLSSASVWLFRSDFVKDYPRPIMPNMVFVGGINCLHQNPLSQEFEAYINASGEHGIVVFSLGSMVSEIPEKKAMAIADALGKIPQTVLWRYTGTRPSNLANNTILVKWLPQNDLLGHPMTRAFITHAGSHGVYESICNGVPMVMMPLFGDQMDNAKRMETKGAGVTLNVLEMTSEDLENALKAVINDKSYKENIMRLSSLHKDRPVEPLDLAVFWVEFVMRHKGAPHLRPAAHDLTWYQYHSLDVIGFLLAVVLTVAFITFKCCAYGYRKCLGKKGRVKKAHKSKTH
Protocol: UGT1A activity was evaluated at Eurofins Panlabs Taiwan, Ltd. ITEM 196000.

[4] = tested on: wild-type C57BL/6 mice; experiment: PND3 wild-type mouse repeat dose study: tolerability; format: in vivo
[5] = tested on: Twitcher mice; experiment: Twitcher mouse survival; format: in vivo; settings: for median survival: IP three times per week
Protocol: Mice heterozygous for the Twitcher mutation on the congenic C57BL/6 background were originally purchased from The Jackson Laboratories (stock #000845). Homozygous GALC −/− animals were generated from heterozygous mating. Genotypes were determined on PND1 by PCR as previously described[43],[44]. Animals that died prior to weaning on PND28 were excluded from the study unless otherwise noted. Animals were euthanized when they became moribund as defined by any of the following: losing 25% of their maximal body weight, ataxia severe enough to impair ability to eat or drink, or lack of response to tactile stimulus. Animals used for tissue collection were euthanized by anesthetic overdose and perfused transcardially with PBS for three min. Animals for lifespan analysis were euthanized using CO2 compressed gas delivered at 10–30% chamber volume displacement per min. […] Tissues were harvested and flash frozen in liquid nitrogen.

C[C@H]1N(c2ccc(Br)cc2)C(=O)N(c2ccc(Br)cc2)C1(O)c1cccc(OC(F)(F)F)c1 (some centres unmarked) [S202]
IC50 [1]: > 50 µM | IC50 [2]: > 50 µM | IC50 [3]: > 30 µM | phenotypes ([4]; daily IP PND3 to PND40, above 0.5 mg/kg): reduced weight gain, mild hind limb gait abnormalities, and some animal deaths | tolerability ([4]; daily IP PND3 to PND40, lower doses): well tolerated at lower doses | median survival ([5]; PND3 start, 0.15 mg/kg): 60 days | median survival ([5]; PND15 start, 5.0 mg/kg): ~ 63 days | effect on lifespan ([5]; PND3 start, highest dose tested (1.5 mg/kg)): reduced lifespan
